According to patent US9205128B2, “Method for inhibiting HIV replication in mammal and human cells” (priority 2010, dated 2015):
No end group written: not given here.

Legend:
[1] = tested on: HIV-1; test: Total virus challenge of MT4 cells, p24 antigen ELISA; assay type: cell-based; settings: HIV-1 Bru, m.o.i. 0.01, 5-day incubation
[2] = tested on: HIV-1; settings: PBMCs of infected individuals treated ex vivo; 15d-PGJ2 at 5 μM; vs untreated cells
Method: PBMCs were isolated from whole blood of HIV-1 infected individuals by Ficoll density gradients. […] Replication was evaluated by determining the p24 antigen concentration on culture supernatants by the ELISA method.

[3] = tested on: vimentin protein; settings: Stamatakis et al. 2006; cited from earlier work
[4] = tested on: HIV-2 CBL-20 strain; test: HIV-2 replication in pre-stimulated PBMCs, p24; assay type: cell-based; settings: 7 days
Method: PBMCs were isolated from whole blood of healthy individuals by using Ficoll density gradients. […] Cells were subsequently maintained in PHA-free medium and seeded at 150 000 cells per well in 96-well plates. After 24 h, peptides were added at different concentrations and the cultures were infected with the CBL-20 HIV-2 strain. The cultures were kept for 7 days, being changed every 3 days the medium and the peptides added. Cultures were harvested and supernatants collected to evaluate the presence of the p24 viral protein.

[5] = target: T1, vimentin (Homo sapiens, UniProt P08670); test: Western blot of vimentin in MT4 cells incubated with peptides; assay type: cell-based; settings: 50 μM peptide, 24 h
T1 construct: these proteins are endogenous cellular proteins rather than viral; endogenous in cells; host or cells: MT4 cell line (untransduced, shRNA-transduced MT4vim(s), or peptide-treated)
T1 sequence (P08670 whole entry): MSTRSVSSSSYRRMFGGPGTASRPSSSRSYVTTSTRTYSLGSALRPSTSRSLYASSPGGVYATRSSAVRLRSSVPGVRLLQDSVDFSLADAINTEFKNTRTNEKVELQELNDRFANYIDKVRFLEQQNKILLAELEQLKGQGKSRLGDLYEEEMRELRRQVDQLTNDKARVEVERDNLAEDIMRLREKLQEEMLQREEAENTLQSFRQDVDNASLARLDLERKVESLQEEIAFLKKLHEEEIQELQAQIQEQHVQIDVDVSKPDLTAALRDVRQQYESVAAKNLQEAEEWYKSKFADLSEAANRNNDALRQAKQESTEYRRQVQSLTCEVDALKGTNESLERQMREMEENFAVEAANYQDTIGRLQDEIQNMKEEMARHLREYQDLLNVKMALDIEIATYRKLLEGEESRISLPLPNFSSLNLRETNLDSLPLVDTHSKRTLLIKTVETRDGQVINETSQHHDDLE
Method: The MT4 cell line was incubated at 50 μM of each peptide for 24 h. The vimentin protein was detected by the western blot technique. Cellular extracts were resuspended in 1% sodium dodecyl sulphate (SDS) and applied in a 10% polyacrylamide gel, being further transferred to a Hybond-P […] membrane. For immunoidentification purposes, anti-vimentin and anti-β actin (as control) antibodies were used. An anti-mouse IgG antibody-peroxidase conjugate was used as secondary antibody. The activity of the peroxidase enzyme was visualized by using diaminobenzidine in the presence of hydrogen peroxide and PBS.

[6] = tested on: MT4 cells; test: Cellular penetration of peptides by flow cytometry; assay type: cell-based, human; settings: 5-40 μM, 15, 30 and 60 min
Method: HeLa CD4+ cells were seeded in RPMI medium supplemented at 10% FBS and incubated until reaching 60% confluence of the monolayer. MT4 cells were seeded at 50 000 cells per well in RPMI medium at 10% FBS. Peptides identified as SEQ ID No. 1 and SEQ ID No. 3 were resuspended in injection water and evaluated at 5, 10, and 40 μM concentrations. Peptides were incubated for […] at 37° C. under a 5% CO2 atmosphere, and penetration was evaluated after 15, 30 and 60 min. After each period of time, cells were harvested and immediately analyzed by flow cytometry. Three replicates were analyzed per experimental variant.

[7] = tested on: cytoskeletal intermediate filaments (IFs); test: IFs structural analysis by transmission electron microscopy; assay type: cell-based, human; settings: treated patients (two with SEQ ID No. 1, three with SEQ ID No. 2)
Method: Firstly, MT4vim(s), MT4K-10(s) and MT4 cells were fixed in 3.2% glutaraldehyde for 1 h at 4° C. and then fixed in 2% osmium tetroxide for 1 h at 4° C. They were subsequently washed with 0.1 M phosphate buffered saline (PBS), pH 7.2, and dehydrated at increasing ethanol concentrations (30, 50, 70 and 100%) for 10 min each at 4° C. Inclusion was carried out and ultrathin 40-50 nm-width sections were taken in an ultramicrotome (NOVA, LKB), which were placed on 400-orifices nickel trays. Once the ultrathin cuts were taken and placed on the trays, they were contrasted with saturated uranyl acetate and lead citrate, and further examined under a JEOL JEM 2000 EX (JEOL) microscope. Five microphotographs were analyzed at different magnifications. MT4 cell intact IFs are shown in FIG. 5A, meanwhile these structures appeared shortened in MT4vim(s) MT4K-10(s) cells (FIGS. 5B and C, respectively). […] Inhibition of the viral replication was observed under these conditions. Vimentin or keratin-10 proteins were identified at IFs by immunomicroscopy.
IFs structure was analyzed by transmission electron microscopy, following the methodology described in Example 3.
IFs structures were analyzed by transmission electron microscopy, following the methodology described in Example 3. […]

[8] = tested on: HIV-1; settings: 150 mg per day, 6 months follow-up; two of eight patients (both formulations pooled)

Molecule	% of HIV-1 inhibition [2] [%]	HIV-2 replication [4]	vimentin band intensity [5]	also measured
CCCCC/C=C/C=C1/C(=O)C=C[C@@H]1C/C=C\CCCC(=O)O [Peptide 15d-PGJ2, prostaglandin cyclopentane 15 deoxy-Δ-^12,14-PGJ2]	80.1	–	–	HIV replication [1]: inhibits the HIV replication in vitro; binding to vimentin [3]: binds to the vimentin protein
RVTQMNLNDRLASLYDKVRALEESNYELEGKIKEW [Peptide 8]	86.7	inhibited HIV-2 replication in a dose-dependent manner	decreased intensity	–
KVELQELNDRFANYIDKVRF [Peptide 3]	85.3	–	–	–
RVTQMNLNDRLASLYDKV [Peptide 1]	89.3	–	–	penetration into cells [6]: able to penetrate by their own into the MT4 cells
DMEIATYRTLLEGEESRM [Peptide 2]	81.1	inhibited HIV-2 replication in a dose-dependent manner	–	IFs structure [7]: shortened; viral load after treatment [8]: undetectable
RVTQMNLNDRLASLYDKVHYRIKPTFRRLKWKYKGKFW [Peptide 9]	81.3	inhibited HIV-2 replication in a dose-dependent manner	decreased intensity	–
